These results are taken from patent US8716281B2, “Pyrimidine compounds that inhibit anaplastic lymphoma kinase” (Amgen Inc., priority 2010, dated 2014).

In general, IC50 refers to the concentration that gives 50% inhibition.

This assay deals with T1, wild-type human ALK cytoplasmic domain (amino acids 1058-1620) (Homo sapiens, UniProt Q9UM73).
T1 construct: The cytoplasmic domain (amino acids 1058-1620) of wild-type human ALK; GST (N); made in house; host or cells: SF9 insect cells
T1 sequence (Q9UM73 1058-1620): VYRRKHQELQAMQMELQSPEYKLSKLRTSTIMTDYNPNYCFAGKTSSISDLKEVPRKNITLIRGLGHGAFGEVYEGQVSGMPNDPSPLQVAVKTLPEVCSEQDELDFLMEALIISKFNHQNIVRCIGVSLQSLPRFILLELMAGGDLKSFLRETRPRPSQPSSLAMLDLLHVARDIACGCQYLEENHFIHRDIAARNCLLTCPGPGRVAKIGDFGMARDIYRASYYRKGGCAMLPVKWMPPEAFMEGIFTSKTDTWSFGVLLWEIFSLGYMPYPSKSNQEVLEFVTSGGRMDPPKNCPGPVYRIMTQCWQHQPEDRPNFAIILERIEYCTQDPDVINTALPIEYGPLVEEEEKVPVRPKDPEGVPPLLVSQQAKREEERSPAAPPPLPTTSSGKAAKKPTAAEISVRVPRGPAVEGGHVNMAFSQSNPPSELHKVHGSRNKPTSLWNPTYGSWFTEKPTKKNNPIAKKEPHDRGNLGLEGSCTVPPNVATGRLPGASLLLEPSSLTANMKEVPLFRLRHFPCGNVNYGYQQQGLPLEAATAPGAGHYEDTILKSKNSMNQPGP
Put plainly: ALK Inhibition in Enzyme Assay (Lance TR-FRET). The class given is biochemical. Particulars: 2 nM enzyme, ATP at 40 μM (Km apparent), 90 minutes, mean of three replicates; read-out: ALK IC50. How it is done: ALK Inhibition in Enzyme Assay
Kinase activity of the purified protein was assessed using a Lance® TR-FRET assay. […] The reaction was allowed to proceed for 90 minutes at room temperature and was then terminated with 20 mM EDTA in 50 mM Tris (pH 7.5), 100 mM NaCl, 0.05% BSA, and 0.1% Tween-20. Phosphorylation of the peptide substrate was detected using the Lance® detection reagents streptavidin-allophycocyanin (SA-APC) and Eu-W1024 anti-phosphotyrosine antibody (PT66) from Perkin Elmer Life Sciences (Waltham, Mass.). The plates were read on a RUBY star plate reader (BMG LABTECH, Cary, N.C.) with an excitation wavelength of 320 nm.
In general terms: TR-FRET usually uses a lanthanide donor and a delayed reading to cut background.
As to `COc1cc(Nc2nccc(N3CC(C(=O)NCc4ccc(C)cc4)CCC3C)n2)cc(OC)c1OC` (mixture of isomers) [Example 194, 6-Methyl-N-(4-Methylbenzyl)-1-(2-(3,4,5-Trimethoxyphenylamino)Pyrimidin-4-Yl)Piperidine-3-Carboxamide], the IC50 lay within 100 to 1000 nM. With `COc1cc(Nc2nccc(N3CC(C)CC(C(=O)NCc4ccc(C)cc4)C3)n2)cc(OC)c1OC` (mixture of isomers) [Example 195, 5-Methyl-N-(4-Methylbenzyl)-1-(2-(3,4,5-Trimethoxyphenyl Amino)Pyrimidin-4-Yl)Piperidine-3-Carboxamide], the IC50 fell in the range of 1000 to 5000 nM. With `COc1cc(Nc2nccc(N3CCNC(C(=O)NCc4ccc(C)cc4)C3)n2)cc(OC)c1OC` (stereo not drawn) [Example 2, N-(4-Methylbenzyl)-4-(2-(3,4,5-Trimethoxyphenylamino)Pyrimidin-4-Yl)Piperazine-2-Carboxamide], the 50% inhibitory concentration (IC50) lay within 1000 to 5000 nM. The result for `O=C(NCc1ccc(OC(F)(F)F)cc1)[C@H]1CCCN(c2ccnc(Nc3ccc(N4CCOCC4)cc3)n2)C1` [Example 3, (S)-1-(2-(4-Morpholinophenylamino)Pyrimidin-4-Yl)-N-(4-(Trifluoromethoxy)Benzyl)Piperidine-3-Carboxamide] reads 100 to 1000 nM; that for `COc1cc(Nc2nccc(N3CCSC(C(=O)NCc4ccc(C)cc4)C3)n2)cc(OC)c1OC` (stereo not drawn) [Example 4, N-(4-Methylbenzyl)-4-(2-(3,4,5-Trimethoxy-Phenylamino)Pyrimidin-4-Yl)Thiomorpholine-2-Carboxamide], 1000 to 5000 nM. Turning to `COc1cc(Nc2nccc(N3CCOC(C(=O)NCc4ccc(C)cc4)C3)n2)cc(OC)c1OC` (stereo not drawn) [Example 5, N-(4-Methylbenzyl)-4-(2-(3,4,5-Trimethoxy-Phenylamino)Pyrimidin-4-Yl)Morpholine-2-Carboxamide], the IC50 was 1000 to 5000 nM. The result for `COc1cc(Nc2ncc(C)c(N3CCC[C@H](C(=O)NCc4ccc(C)cc4)C3)n2)cc(OC)c1OC` [Example 8, (S)-1-(5-Methyl-2-(3,4,5-Trimethoxyphenyl-Amino)Pyrimidin-4-Yl)-N-(4-Methylbenzyl)Piperidine-3-Carboxamide] reads 1000 to 5000 nM; that for `COc1cc(Nc2ncc(C)c(N3CCC[C@@H](C(=O)NCc4ccc(C)cc4)C3)n2)cc(OC)c1OC` [Example 9, (R)-1-(5-Methyl-2-(3,4,5-Trimethoxyphenyl-Amino)Pyrimidin-4-Yl)-N-(4-Methylbenzyl)Piperidine-3-Carboxamide], 100 to 1000 nM; that for `COc1cc(Nc2ncc(Cl)c(N3CCC[C@H](C(=O)NCc4ccc(C)cc4)C3)n2)cc(OC)c1OC` [Example 10, (S)-1-(5-Chloro-2-(3,4,5-Trimethoxyphenyl-Amino)Pyrimidin-4-Yl)-N-(4-Methylbenzyl)Piperidine-3-Carboxamide], 100 to 1000 nM.

Turning to `COc1cc(Nc2nc(C)cc(N3CCC[C@H](C(=O)NCc4ccc(C)cc4)C3)n2)cc(OC)c1OC` [Example 11, (S)-1-(6-Methyl-2-(3,4,5-Trimethoxyphenyl-Amino)Pyrimidin-4-Yl)-N-(4-Methylbenzyl)Piperidine-3-Carboxamide], the IC50 was 5000 to 10000 nM. `COc1cc(Nc2nc(Cl)cc(N3CCC[C@H](C(=O)NCc4ccc(C)cc4)C3)n2)cc(OC)c1OC` [Example 12, (S)-1-(6-Chloro-2-(3,4,5-Trimethoxyphenyl-Amino)Pyrimidin-4-Yl)-N-(4-Methylbenzyl)Piperidine-3-Carboxamide]: the IC50 is above 10000 nM. The result for `COc1cc(Nc2nccc(N3CCC[C@@H](C(=O)NCc4ccc(F)cc4)C3)n2)cc(OC)c1OC` [Example 13, (R)—N-(4-Fluorobenzyl)-1-(2-(3,4,5-Trimethoxy-Phenylamino)Pyrimidin-4-Yl)Piperidine-3-Carboxamide] reads 1000 to 5000 nM. As for `COc1cc(Nc2nccc(N3CCC[C@H](C(=O)NCc4ccc(F)cc4)C3)n2)cc(OC)c1OC` [Example 14, (S)-N-((4-fluorophenyl)methyl)-1-(2-((3,4,5-tris(methyloxy)phenyl)amino)-4-pyrimidinyl)-3-piperidinecarboxamide], the IC50 fell in the range of 100 to 1000 nM.

In the case of `COc1ccc(CNC(=O)[C@H]2CCCN(c3ccnc(Nc4cc(OC)c(OC)c(OC)c4)n3)C2)cc1` [Example 15, (S)-N-((4-(methyloxy)phenyl)methyl)-1-(2-((3,4,5-tris(methyloxy)phenyl)amino)-4-pyrimidinyl)-3-piperidinecarboxamide], the IC50 was in the range of 100 to 1000 nM. As to `COc1cc(Nc2nccc(N3CCC[C@@H](C(=O)NCc4ccncc4)C3)n2)cc(OC)c1OC` [Example 18, (R)-N-(4-pyridinylmethyl)-1-(2-((3,4,5-trimethoxyphenyl)amino)-4-pyrimidinyl)-3-piperidinecarboxamide], the half-inhibitory concentration (IC50) lay within 5000 to 10000 nM. Take `COc1cc(Nc2nccc(N3CCC[C@@H](C(=O)NCc4ccc(F)cc4)C3)n2)cc(OC)c1OC` [Example 19, (R)-N-(4-fluorobenzyl)-1-(2-((3,4,5-trimethoxyphenyl)amino)-4-pyrimidinyl)-3-piperidinecarboxamide]: the IC50 lay within 1000 to 5000 nM. The figure for `COc1cc(Nc2nccc(N3CCC[C@H](C(=O)NC(C)c4ccc(Br)cc4)C3)n2)cc(OC)c1OC` (stereo partly drawn) [Example 26, (S)-N-(1-(4-bromophenyl)ethyl)-1-(2-((3,4,5-trimethoxyphenyl)amino)-4-pyrimidinyl)-3-piperidinecarboxamide] is 100 to 1000 nM; for `COc1cc(Nc2nccc(N3CCC[C@H](C(=O)N[C@@H](C)c4ccc(Br)cc4)C3)n2)cc(OC)c1OC` [Example 27, (S)-N-((S)-1-(4-bromophenyl)ethyl)-1-(2-((3,4,5-trimethoxyphenyl)amino)-4-pyrimidinyl)-3-piperidinecarboxamide] it is 100 to 1000 nM; for `COc1cc(Nc2nccc(N3CCC[C@H](C(=O)NCc4cc(Cl)ccc4C)C3)n2)cc(OC)c1OC` [Example 28, (S)-N-(5-chloro-2-methylbenzyl)-1-(2-((3,4,5-trimethoxyphenyl)amino)-4-pyrimidinyl)-3-piperidinecarboxamide] it is 50 to 100 nM. Turning to `COc1cc(Nc2nccc(N3CCC[C@H](C(=O)NCc4ccc(Cl)cc4F)C3)n2)cc(OC)c1OC` [Example 29, (S)-N-(4-chloro-2-fluorobenzyl)-1-(2-((3,4,5-trimethoxyphenyl)amino)-4-pyrimidinyl)-3-piperidinecarboxamide], the concentration for half-maximal inhibition (IC50) lay within 50 to 100 nM. Turning to `COc1cc(Nc2nccc(N3CCC[C@H](C(=O)NC(c4ccccc4)C(F)(F)F)C3)n2)cc(OC)c1OC` (stereo partly drawn) [Example 30, (S)-N-(2,2,2-trifluoro-1-phenylethyl)-1-(2-((3,4,5-trimethoxyphenyl)amino)-4-pyrimidinyl)-3-piperidinecarboxamide], the IC50 is 1000 to 5000 nM. Regarding `COc1cc(Nc2nccc(N3CCC[C@H](C(=O)NCc4cccc5ccccc45)C3)n2)cc(OC)c1OC` [Example 31, (S)-N-(1-naphthalenylmethyl)-1-(2-((3,4,5-trimethoxyphenyl)amino)-4-pyrimidinyl)-3-piperidinecarboxamide], the IC50 was 1000 to 5000 nM.

As for `COc1ccccc1CNC(=O)[C@H]1CCCN(c2ccnc(Nc3cc(OC)c(OC)c(OC)c3)n2)C1` [Example 32, (S)-N-(2-methoxybenzyl)-1-(2-((3,4,5-trimethoxyphenyl)amino)-4-pyrimidinyl)-3-piperidinecarboxamide], the IC50 lay within 5000 to 10000 nM. As to `COc1cc(Nc2nccc(N3CCC[C@H](C(=O)NCc4ccc(C(F)(F)F)cc4)C3)n2)cc(OC)c1OC` [Example 34, (S)-N-(4-(trifluoromethyl)benzyl)-1-(2-((3,4,5-trimethoxyphenyl)amino)-4-pyrimidinyl)-3-piperidinecarboxamide], the IC50 fell in the range of 50 to 100 nM. For `COc1cc(Nc2nccc(N3CCC[C@H](C(=O)NCc4ccccc4C(F)(F)F)C3)n2)cc(OC)c1OC` [Example 37, (S)-N-(2-(trifluoromethyl)benzyl)-1-(2-((3,4,5-trimethoxyphenyl)amino)-4-pyrimidinyl)-3-piperidinecarboxamide], the IC50 is 5000 to 10000 nM. With `COc1cccc(CNC(=O)[C@H]2CCCN(c3ccnc(Nc4cc(OC)c(OC)c(OC)c4)n3)C2)c1` [Example 38, (S)-N-(3-methoxybenzyl)-1-(2-((3,4,5-trimethoxyphenyl)amino)-4-pyrimidinyl)-3-piperidinecarboxamide], the IC50 fell in the range of 100 to 1000 nM.

On to `COc1cc(Nc2nccc(N3CCC[C@H](C(=O)NC4CCc5ccccc54)C3)n2)cc(OC)c1OC` (stereo partly drawn) [Example 39, (S)-N-(2,3-dihydro-1H-inden-1-yl)-1-(2-((3,4,5-trimethoxyphenyl)amino)-4-pyrimidinyl)-3-pipcridinecarboxamide], for which the IC50 is 1000 to 5000 nM. Consider `COc1cc(Nc2nccc(N3CCC[C@H](C(=O)NCc4ccc(N(C)C)cc4)C3)n2)cc(OC)c1OC` [Example 42, (S)-N-(4-(dimethylamino)benzyl)-1-(2-((3,4,5-trimethoxyphenyl)amino)-4-pyrimidinyl)-3-piperidinecarboxamide], for which the half-maximal inhibitory concentration (IC50) is 1000 to 5000 nM. Turning to `COc1cc(Nc2nccc(N3CCC[C@H](C(=O)NC(C#N)c4ccccc4)C3)n2)cc(OC)c1OC` (stereo partly drawn) [Example 43, (S)-N-(cyano(phenyl)methyl)-1-(2-((3,4,5-trimethoxyphenyl)amino)-4-pyrimidinyl)-3-piperidinecarboxamide], the IC50 fell in the range of 100 to 1000 nM.

For `COc1cc(Nc2nccc(N3CCC[C@H](C(=O)NCc4ccc5c(c4)CCO5)C3)n2)cc(OC)c1OC` [Example 44, (S)-N-(2,3-dihydro-1-bcnzofuran-5-ylmethyl)-1-(2-((3,4,5-trimethoxyphenyl)amino)-4-pyrimidinyl)-3-piperidinecarboxamide], the IC50 was in the range of 100 to 1000 nM.
